Experimental data published in patent US20050096327A1, “Novel norepinephrine reuptake inhibitors for the treatment of central nervous system disorders” (priority 2003, published 2005).
Counter-ions that a name gives are not always drawn.

target: T1, human norepinephrine transporter (Homo sapiens, UniProt P23975); assay: hNET receptor binding ([125I]-RTI-55, membranes of transfected HEK-293 cells); details: 50 pM [125I]-RTI-55, 90 min room temperature; IC50 converted by Cheng-Prusoff
T1 construct: host or cells: HEK-293
Method: Cell pastes of HEK-293 cells transfected with the human norepinephrine transporter were supplied by the Pfizer Ann Arbor Protein Expression and Production group. Pellets were resuspended in 400 to 700 ml of Krebs-HEPES assay buffer (25 mM HEPES, 122 mM NaCl, 3 mM KCl, 1.2 mM MgSO4, 1.3 mM CaCl2, and 11 mM glucose, pH 7.4) with a Polytron homogenizer at setting 7 for 30 sec. Aliquots of membranes (5 mg/ml protein) were stored in liquid nitrogen until used.
The binding assay was set up in Beckman deep-well polypropylene plates with a total volume of 250 μl containing: drug (10^−5M to 10^−12M), cell membranes, and 50 pM [^125I]-RTI-55 (Perkin Elmer, NEX-272; specific activity 2200 Ci/mmol). The reaction was incubated by gentle agitation for 90 min at room temperature and was terminated by filtration through Whatman GF/C filter plates using a Brandel 96-well plate harvester. Scintillation fluid (100 μl) was added to each well, and bound [^125I]-RTI-55 was determined using a Wallac Trilux Beta Plate Counter. Test compounds were run in duplicate, and specific binding was defined as the difference between binding in the presence and absence of 10 μM desipramine.
Excel and GraphPad Prism software were used for data calculation and analysis. IC50 values were converted to Ki values using the Cheng-Prusoff equation. The Ki values for the hNET are reported below in Table 1.

T1 sequence (P23975 whole entry): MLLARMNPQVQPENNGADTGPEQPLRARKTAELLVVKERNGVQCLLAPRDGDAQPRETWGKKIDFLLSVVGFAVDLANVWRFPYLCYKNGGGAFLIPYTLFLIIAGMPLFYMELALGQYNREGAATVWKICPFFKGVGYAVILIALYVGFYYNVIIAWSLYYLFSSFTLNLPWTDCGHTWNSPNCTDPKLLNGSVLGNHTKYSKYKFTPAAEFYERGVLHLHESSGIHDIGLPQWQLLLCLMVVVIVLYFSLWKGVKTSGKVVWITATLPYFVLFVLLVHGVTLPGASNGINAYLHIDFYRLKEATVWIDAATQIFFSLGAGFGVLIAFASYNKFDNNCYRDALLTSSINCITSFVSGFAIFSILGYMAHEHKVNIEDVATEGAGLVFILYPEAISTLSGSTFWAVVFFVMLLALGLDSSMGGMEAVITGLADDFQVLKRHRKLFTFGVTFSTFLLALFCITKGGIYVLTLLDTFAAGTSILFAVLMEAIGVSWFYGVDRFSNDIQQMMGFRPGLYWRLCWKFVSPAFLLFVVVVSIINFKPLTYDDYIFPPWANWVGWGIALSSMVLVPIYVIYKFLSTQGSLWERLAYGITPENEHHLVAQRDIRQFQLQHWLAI

| Compound | Ki [nM] |
| --- | --- |
| Fc1ccc(-c2nc(C3CCNCC3)nc3ccccc23)cc1 [Example 68, 4-(4-Fluoro-phenyl)-2-piperidin-4-yl-quinazoline] | 40.6 |
| Fc1ccccc1-c1nc(N2CC3CCCC(C2)N3)nc2ccccc12 [Example 33, 2-(3,9-Diaza-bicyclo[3.3.1]non-3-yl)-4-(2-fluoro-phenyl-quinazoline hydrochloride] | 19 |
| Clc1cccc(Cl)c1-c1nc(N2CCNCC2)nc2ccccc12 [Example 63, 4-(2,6-Dichloro-phenyl)-2-piperazin-1-yl-quinazoline] | 17.6 |
| c1ccc(-c2nc(N3CC4CC3CN4)nc3ccccc23)cc1 (stereo not shown) [Example 10, 2-(2,5-Diaza-bicyclo[2.2.1]hept-2-yl)-4-phenyl-quinazoline hydrochloride] | 3.4 |
| CN1CCC(c2nc(-c3c(F)cccc3Cl)c3ccccc3n2)CC1 [Example 74, 4-(2-Chloro-6-fluoro-phenyl)-2-(1-methyl-piperidin-4-yl)-quinazoline] | 22.9 |
| 2-Piperazin-1-yl-4-s-tolyl-quinazoline hydrochloride [Example 53] | 10.5 |
| CN1CCC(c2nc(-c3ccccc3Cl)c3ccccc3n2)CC1 [Example 44, 4-(2-Chloro-phenyl)-2-(1-methyl-piperidin-4-yl)-quinazoline] | 62.5 |
| c1ccc(-c2nc(N3C4CCCC3CNC4)nc3ccccc23)cc1 [Example 55, 2-(3,9-Diaza-bicyclo[3.3.1]non-9-yl)-4-phenyl-quinazoline] | 11 |
| C[C@@H]1CN(c2nc(-c3ccccc3)c3ccccc3n2)CCN1 [Example 31, (R)-(+)-2-(3-Methyl-piperazin-1-yl)-4-phenyl-quinazoline] | 34.5 |
| Fc1ccccc1-c1nc(C2CCNCC2)nc2ccccc12 [Example 41, 4-(2-Fluoro-phenyl)-2-(piperidin-4-yl)-quinazoline hydrochloride] | 4 |
| CN1CCC(c2nc(-c3cccc(F)c3)c3ccccc3n2)CC1 [Example 67, 4-(3-Fluoro-phenyl)-2-(1-methyl-piperidin-4-yl)-quinazoline] | 53.5 |
| Fc1cccc(-c2nc(C3CCNCC3)nc3ccccc23)c1F [Example 71, 4-(2,3-Difluoro-phenyl)-2-piperidin-4-yl-quinazoline] | 3 |
| Fc1ccc(-c2nc(N3CCNCC3)nc3ccccc23)c(Cl)c1 [Example 61, 4-(2-Chloro-4-fluoro-phenyl)-2-piperazin-1-yl-quinazoline] | 6.9 |
| Fc1cccc(F)c1-c1nc(N2CCNCC2)nc2ccccc12 [Example 29, 4-(2,6-Difluoro-phenyl)-2-piperazin-4-yl-quinazoline hydrochloride] | 4.8 |
| Fc1ccc2c(-c3ccccc3F)nc(C3CCNCC3)nc2c1 [Example 65, 7-Fluoro-4-(2-fluoro-phenyl)-2-piperidin-4-yl-quinazoline] | 3.3 |
| Clc1ccccc1-c1nc(N2CCNCC2)nc2ccccc12 [Example 22, 4-(2-Chloro-phenyl)-2-piperazin-1-yl-quinazoline hydrochloride] | 4.8 |
| c1ccc(-c2nc(N[C@H]3CCNC3)nc3ccccc23)cc1 [Example 17, (S)-(−)-3-(4-Phenyl-quinazolin-2-yl)-aminopyrrolidine hydrochloride] | 45 |
| c1ccc(-c2nc(N3CC4CNCC4C3)nc3ccccc23)cc1 (stereo not shown) [Example 81, 2-(Hexahydro-pyrrolo[3,4-c]pyrrol-2-yl)-4-phenyl-quinazoline] | 61 |
| Fc1ccc2nc(C3CCNCC3)nc(-c3ccccc3F)c2c1 [Example 64, 6-Fluoro-4-(2-fluoro-phenyl)-2-piperidin-4-yl-quinazoline] | 17.7 |
| Fc1ccccc1-c1nc(C2(c3ccccc3)CCNCC2)nc2ccccc12 [Example 79, 4-(2-Fluoro-phenyl)-2-(4-phenyl-piperidin-4-yl)-quinazoline] | 63.4 |
| Fc1cccc(F)c1-c1nc(N[C@H]2CCNC2)nc2ccccc12 [Example 58] | 8 |
| CN1CCC(c2nc(-c3c(F)cccc3F)c3ccccc3n2)CC1 [Example 69, 4-(2,6-Difluoro-phenyl)-2-(1-methyl-piperidin-4-yl)-quinazoline] | 37.9 |
| COc1ccccc1-c1nc(N2CCNCC2)nc2ccccc12 [Example 23, 4-(2-Methoxy-phenyl)-2-piperazin-1-yl-quinazoline hydrochloride] | 29.5 |
| c1ccc(-c2nc(N3CC4CC3CN4)nc3ccccc23)cc1 (stereo not shown) [Example 80, 2-(2,5-Diaza-bicyclo[2.2.1]hept-2-yl)-4-phenyl-quinazoline] | 9.5 |
| CN[C@H]1CCN(c2nc(-c3ccccc3F)c3ccccc3n2)C1 [Example 35, (S)-(+)-1-[4-(2-Fluoro-phenyl)-quinazolin-2-yl]-pyrrolidin-3-yl}-methyl-amine hydrochloride] | 19.3 |

Further compounds by falling Ki, results first:

| Ki [nM] | Compound |
| --- | --- |
| 93.4 | c1ccc(Cc2nc(N3CCNCC3)nc3ccccc23)cc1 [Example 28, 4-Benzyl-2-piperazin-1-yl-quinazoline hydrochloride] |
| 60.3 | COc1ccccc1-c1nc(C2CCNCC2)nc2ccccc12 [Example 46, 4-(2-Methoxy-phenyl)-2-piperidin-4-yl-quinazoline hydrochloride] |
| 44.7 | Cc1ccccc1-c1nc(C2CCNCC2)nc2ccccc12 [Example 76, 2-Piperidin-4-yl-4-o-tolyl-quinazoline] |
| 29.2 | CN1CCC(c2nc(-c3ccccc3F)c3ccccc3n2)CC1 [Example 43, 4-(2-Fluoro-phenyl)-2-(1-methyl-piperidin-4-yl)-quinazoline] |
| 26.7 | CN1CCN(c2nc(-c3ccccc3Cl)c3ccccc3n2)CC1 [Example 19, 4-(2-Chloro-phenyl)-2-(4-methyl-piperazin-1-yl)-quinazoline] |
| 19.8 | Cc1ccccc1-c1nc(C2CCCNC2)nc2ccccc12 (stereo not shown) [Example 78, 2-Piperidin-3-yl-4-o-tolyl-quinazoline] |
| 17.7 | Fc1ccc(-c2nc(C3CCNCC3)nc3ccccc23)c(F)c1 [Example 72, 4-(2,4-Difluoro-phenyl)-2-piperidin-4-yl-quinazoline] |
| 17.3 | Clc1ccc(-c2nc(N3CCNCC3)nc3ccccc23)cc1 [Example 62, 4-(4-Chloro-phenyl)-2-piperazin-1-yl-quinazoline] |
| 13.3 | c1ccc(-c2nc(C3CCNCC3)nc3ccccc23)cc1 [Example 42, 4-Phenyl-2-piperidin-4-yl-quinazoline hydrochloride] |
| 8.7 | Clc1ccccc1-c1nc(C2CCNCC2)nc2ccccc12 [Example 45, 4-(2-Chloro-phenyl)-2-piperidin-4-yl-quinazoline hydrochloride] |
| 5.9 | Fc1cccc(Cl)c1-c1nc(C2CCNCC2)nc2ccccc12 [Example 75, 4-(2-Chloro-6-fluoro-phenyl)-2-piperidin-4-yl-quinazoline] |
| 5.5 | Fc1cccc(-c2nc(C3CCNCC3)nc3ccccc23)c1 [Example 66, 4-(3-Fluoro-phenyl)-2-piperidin-4-yl-quinazoline] |
| 4.8 | c1ccc(-c2nc(N3CCNCC3)nc3ccccc23)cc1 [Example 3, 4-Phenyl-2-piperazin-1-yl-quinazoline] |
| 4.1 | Fc1cccc(-c2nc(N3CCNCC3)nc3ccccc23)c1 [Example 60, 4-(3-Fluoro-phenyl)-2-piperazin-1-yl-quinazoline] |
| 2.9 | Fc1cccc(F)c1-c1nc(C2CCNCC2)nc2ccccc12 [Example 70, 4-(2,6-Difluoro-phenyl)-2-piperidin-4-yl-quinazoline] |
